“Also recorded” adds a separate entry of the source.
Columns and labels:
mice = assay: Marble burying test; format: in vivo; conditions: for Effects on marble burying relative to racemic mirtazapine: Example 4, FIG. 2
[1] = Pharmacokinetics of 250 mg PO D-cycloserine every 12 hrs in healthy volunteers (Park et al. 2015); format: in vivo, humans; conditions: 250 mg PO every 12 hrs; corresponding to AUC over 12 hrs
NMDAR [2] = molecular target: T1, NMDAR (Homo sapiens, UniProt Q05586); conditions: cited from earlier work
T1 construct: endogenous in cells; host or cells: human subjects in vivo (neuronal receptors); no isolated protein

C57BL/6J mice = assay: Open field (OF) test, locomotor activity; conditions: for Locomotor activity vs. vehicle: 30 min after administration; for Locomotor activity, Mean distance travelled over 30 min: C57BL/6J mice
[3] = Pharmacokinetics of D-cycloserine in humans after 500 mg (Zhu et al. 2001); format: in vivo; conditions: corresponding to AUC over 24 hr
Excerpt: Critical parameters include maximum (peak) concentration achieved (Cmax), time to maximum concentration (Tmax) and area under the curve (AUC) during the dosing interval.

Wistar-Kyoto (WKY) rats = assay: Cued fear conditioning / extinction training, freezing behavior in WKY rats; format: in vivo, rat; conditions: for Freezing behavior, direction of change vs. vehicle: WKY rats, across days 1 and 3
Excerpt: Inbred Wistar-Kyoto (WKY) rats have been used as models of several behavioral deficits, such as stress vulnerability and sleep disturbance.
Fear memories are crucial in psychiatric conditions such as PTSD. Pavlovian fear conditioning (FC) test is a widely-used behavioral assay in rodents for measurement of aversive learning and memory through learned associations between aversive stimulus (a mild electric shock) and a specific cue (e.g., a tone; cued conditioning) or a context in which electric shock had occurred (contextual conditioning). Once the association is established, the conditioned stimulus (CS, i.e. tone or context) can induce fear response in a similar manner to unconditioned stimulus (US, i.e. electric shock). However, if CS repeatedly presents without combination of US, extinction occurs in normal animals. Fear extinction is usually regarded as a new inhibitory learning after repeated or prolonged CS presentations without the US, which causes a gradual decrease in the magnitude and/or frequency of the conditioned response (i.e. freezing response in FC test). Deficits in such inhibitory learning can be regarded as a hallmark of clinical PTSD.
Young adult (about 7 weeks of age), male WKY and Wistar rats purchased from Charles River Laboratory were used in this study. Upon receipt, animals were group-housed (2 per cage) and acclimated for at least 7 days. All rats were examined, handled, and weighed prior to initiation of the study to assure adequate health and suitability. During the course of the study, 12/12 light/dark cycles were maintained. The room temperature was maintained between 20 and 23° C. with a relative humidity maintained around 50%. Rats were randomly assigned to each treatment group. All testing was conducted during the animals' light cycle.
When combined with DSC, the combinations were given in a cocktail 30 minute prior to extinction test • D-CPP-ene (5 mg/kg) was be dissolved in acidified saline and administered s.c 30 min prior to extinction test at a dose volume of 2 ml/kg • Lurasidone (Lur, 0.2 mg/kg was dissolved in saline and administered IP 30 min prior to test at a dose volume of 1 ml/kg • Quetiapine (QTP, 10 mg/kg) was dissolved in acidified saline and administered s.c 30 min prior to test at a dose volume of 1 ml/kg
The experiment was conducted in the fear conditioning system manufactured by Coulbourn Instruments (PA, USA). Animal's body movements are captured with a video system and the FreezeFrame software, and freezing is analyzed automatically by the FreezeView software (Coulbourn Instruments, PA, USA).
Fear Conditioning Training: Animals were exposed to 5 CS-US pairings of a 10 sec tone (70 dB conditioned stimulus/CS) co-terminating with a brief electric shock (0.5 mA for 1.0 sec unconditioned stimulus/US). The 5 CS-US pairings are separated by a 60 sec interval with the first CS at 120 s. The rats stage in boxes for one minute after the last shock before being moved out.
Extinction training: Extinction training was conducted twice at 24 and 72 hr post FC training. A cued FC extinction paradigm was applied. The extinction training was conducted in the “cylinder”, a changed context which is different from the boxes of FC training. The extinction training lasted 32-40 min, including 8-10 identical bins. Each bin includes a 2 min tone period followed by a 2 min no-tone period (inter-trial interval, ITI).
Percent freezing during bins 7-8 of extinction trainings (24 hr and 72 hr) was used to evaluate effectiveness of treatment. Data were analyzed by […] analyses of variance (ANOVA), with treatment/group and extinction stage (cues or bins) set as factors. Fisher LSD method was used in Post hoc comparisons if applicable.

[4] = Pharmacokinetics of DCS in rodent, plasma level by UPLC/MS/MS; format: in vivo, C57BL/6J mice
Excerpt: Male C57BL/6J mice (8 weeks old) from Jackson Laboratories (Bar Harbor, Maine) were used. Upon receipt, mice were assigned unique identification numbers (tail marked) and were group housed in OPTImice cages. All animals were acclimated to the colony room for 1 week prior to testing. During the period of acclimation, animals were examined on a regular basis, handled, and weighed to assure adequate health and suitability. Animals were maintained on a 12/12 light/dark cycle. The room temperature was maintained between 20 and 23° C. with a relative humidity maintained between 30% and 70%. Chow and water were provided ad libitum for the duration of the study. All testing was performed during the animal's light cycle phase.
Sample were collected at 30, 60 and 120 min from separate animals. Mean plasma levels across the 30-120 min timepoint was used for analysis. At each time point, trunk blood was collected in tubes containing K2EDTA and kept on ice for short-term storage. Within 15 minutes of blood collection, tubes were centrifuged for 10 minutes at 10,000 RPM in a refrigerated centrifuge. The supernatant (plasma) was extracted and transferred to pre-labeled tubes on dry ice. Samples were stored at approximately −80° C. until analyses.
Analysis of DCS in plasma and brain samples were performed utilizing an UPLC/MS/MS system consisted of an Acquity UPLC chromatographic system and a Quattro Premier XE triple quad mass spectrometer, both from Waters.
The range of standards utilized was 1.0-1000 ng/mL. Plasma samples were prepared in the same manner but with 10 μL of sample and 90 μL of the internal standard mix to provide 100 μL of sample after dilution for triplicate analysis.
The internal standards D9-Ach (parent 154.95DA to fragment 86.7DA) was incorporated into the samples to correct for sample matrix and instrument variability providing a more robust data set.

NMDAR [5] = molecular target: T1, NMDAR; assay: D-cycloserine plasma concentrations linked to agonist, antagonist and toxic effects; summary of human PK studies; format: in vivo, humans; conditions: consistent finding of human PK studies
Procedure: D-cycloserine is an anti-tuberculosis medication that also acts as a partial glycine-site […] (aka mixed agonist/antagonist). […] Plasma concentrations associated with primarily agonist effects are primarily […]. Plasma concentrations associated with antagonist effects are >25 μg/mi. Increased liability for toxicity is observed at plasma levels >35 μg/mL.
Accordingly, the daily dose for producing such plasma levels will necessarily be above 500 mg/day, as described above.

## CN1CCN2c3ncccc3Cc3ccccc3C2C1 (racemic) [Mirtazapine]
mice; Example 3, mirtazapine 5.5 mg/kg IP 30 min prior to test
  Number of marbles buried compared to vehicle: significantly reduced the number of marbles buried
mice; Example 4, mirtazapine 1, 2.5, 5 and 10 mg/kg IP
  Number of marbles buried compared to vehicle: significantly reduced the number of marbles buried

## N[C@@H]1CON=C1O [D-cycloserine, 3-Isoxazolidinone, 4-amino-, (4R)-(9CI)]
[1]
  mean plasma level: 20. 2 microgram/mL
NMDAR [2]; NMDAR glycine site
  Plasma concentrations associated with antagonist effects: > 25 μg/mi
NMDAR [2]; in vivo
  Plasma levels at which increased liability for toxicity is observed: > 35 µg/mL
C57BL/6J mice; D-cycloserine 30 mg/kg, p=0.5
  Locomotor activity vs. vehicle: not significantly affected
C57BL/6J mice; D-cycloserine 300 mg/kg, p<0.001
  Locomotor activity vs. vehicle: significantly increased
C57BL/6J mice; D-cycloserine 1000 mg/kg, p<0.001
  Locomotor activity vs. vehicle: significantly increased
C57BL/6J mice; DCS 30 mg/kg IP
  Locomotor activity, Mean distance travelled over 30 min: 4432.1
C57BL/6J mice; DCS 300 mg/kg IP
  Locomotor activity, Mean distance travelled over 30 min: 7588.5
[3]
  median sustained plasma level: 8.9 microgram/mL
mice; Example 3, D-cycloserine 30 mg/kg IP 30 min prior to test
  Number of marbles buried compared to vehicle: did not affect this measure
mice; Example 3, D-cycloserine 300 mg/kg IP 30 min prior to test
  Number of marbles buried compared to vehicle: did not affect this measure
Wistar-Kyoto (WKY) rats; DCS 30 mg/kg IP 30 min prior to extinction test
  Percentage WKY animals showing freezing behavior >85% of the time in response to cue stimuli across day 1 and 3 following fear conditioning, Mean: 0.281
Wistar-Kyoto (WKY) rats; DCS 30 mg/kg IP
  Freezing behavior, direction of change vs. vehicle: no significant effect on freezing behavior
Wistar-Kyoto (WKY) rats; DCS 300 mg/kg IP 30 min prior to extinction test
  Percentage WKY animals showing freezing behavior >85% of the time in response to cue stimuli across day 1 and 3 following fear conditioning, Mean: 0.113
Wistar-Kyoto (WKY) rats; DCS 300 mg/kg IP, listed as DCS
  Freezing behavior, direction of change vs. vehicle: significant reduction in freezing behavior; also recorded: Decrease
Wistar-Kyoto (WKY) rats; DCS 300 mg/kg added to lurasidone 0.2 mg/kg, p=0.09
  Effect of high-dose DCS on freezing when added to lurasidone: tended to decrease freezing
Wistar-Kyoto (WKY) rats; DCS 300 mg/kg with quetiapine 10 mg/kg, p=0.3
  Effect of high-dose DCS on freezing in combination with quetiapine: without statistical effect
[4]; 30 mg/kg IP, mice, mean across 30-120 min, difference from 25 not significant (p=0.2)
  DCS plasma level: below 25 microgram/mL
[4]; 100 mg/kg and above IP, mice, mean across 30-120 min, p<0.01
  DCS plasma level: > 25 microgram/mL
[4]; 300 mg/kg DCS as in prior examples
  DCS plasma level: > 25 micrograms/mL
NMDAR [5]
  Sustained plasma level following 500 mg administration: below 25 microgram/mL

## OCCOCCN1CCN(C2=Nc3ccccc3Sc3ccccc32)CC1 [QTP, Quetiapine]
Wistar-Kyoto (WKY) rats; quetiapine 10 mg/kg s.c. 30 min prior to test
  Percentage WKY animals showing freezing behavior >85% of the time in response to cue stimuli across day 1 and 3 following fear conditioning, Mean: 0.625
Wistar-Kyoto (WKY) rats; quetiapine 10 mg/kg s.c.
  Freezing behavior, direction of change vs. vehicle: Increase
Wistar-Kyoto (WKY) rats; quetiapine 10 mg/kg s.c., listed as quetiapine
  Freezing behavior, direction of change vs. vehicle: tended to increase freezing behavior

## O=C(O)[C@H]1CN(C/C=C/P(=O)(O)O)CCN1 [DCPPene, D-(E)-4-(3-phosphonoprop-2-enyl)piperazine-2-carboxylic acid]
Wistar-Kyoto (WKY) rats; D-CPP-ene 5 mg/kg s.c. 30 min prior to extinction test
  Percentage WKY animals showing freezing behavior >85% of the time in response to cue stimuli across day 1 and 3 following fear conditioning, Mean: 0.625
Wistar-Kyoto (WKY) rats; D-CPP-ene 5 mg/kg s.c.
  Freezing behavior, direction of change vs. vehicle: Increase
Wistar-Kyoto (WKY) rats; D-CPP-ene 5 mg/kg s.c., listed as D-CPPene
  Freezing behavior, direction of change vs. vehicle: tended to increase freezing behavior

## CN[C@H]1CC[C@@H](c2ccc(Cl)c(Cl)c2)c2ccccc21 [Sertraline]
Wistar-Kyoto (WKY) rats; sertraline 20 mg/kg IP 30 min prior to test
  Percentage WKY animals showing freezing behavior >85% of the time in response to cue stimuli across day 1 and 3 following fear conditioning, Mean: 0.156
Wistar-Kyoto (WKY) rats; sertraline 20 mg/kg IP
  Freezing behavior, direction of change vs. vehicle: Decrease
Wistar-Kyoto (WKY) rats; sertraline 20 mg/kg IP, listed as sertraline
  Freezing behavior, direction of change vs. vehicle: significant reduction in freezing behavior

## CN1CCN2c3ncccc3Cc3ccccc3[C@@H]2C1 [R-mirtazapine, R-(−)-mirtazapine]
mice
  Effects on marble burying relative to racemic mirtazapine: less robust
mice; Example 4, R-mirtazapine 10 mg/kg IP
  Number of marbles buried compared to vehicle: significantly reduced the number of marbles buried
mice; Example 4, R-mirtazapine 1, 2.5 and 5 mg/kg IP
  Number of marbles buried compared to vehicle: did not affect this measure
mice; R- vs S-isomer
  Relative effects of R- and S-isomers of mirtazapine on marble burying (FIG. 2 legend): greater effects

## O=C1[C@@H]2[C@H]3CC[C@H](C3)[C@@H]2C(=O)N1C[C@@H]1CCCC[C@H]1CN1CCN(c2nsc3ccccc23)CC1 [Lurasidone]
Wistar-Kyoto (WKY) rats; lurasidone 0.2 mg/kg IP 30 min prior to test
  Percentage WKY animals showing freezing behavior >85% of the time in response to cue stimuli across day 1 and 3 following fear conditioning, Mean: 0.531

## CN1CCN2c3ncccc3Cc3ccccc3[C@H]2C1 [S-mirtazapine, S-(+)-mirtazapine]
mice
  Effects on marble burying relative to racemic mirtazapine: significantly more robust
mice; Example 4, S-mirtazapine 1, 2.5, 5, 10 mg/kg IP
  Number of marbles buried compared to vehicle: significantly reduced the number of marbles buried
mice; Example 4, S-mirtazapine with or without DCS
  Marble burying in the absence and presence of DCS: floor level effects

## Fc1ccc([C@@H]2CCNC[C@H]2COc2ccc3c(c2)OCO3)cc1 [Paroxetine]
mice; Example 3, paroxetine 5 mg/kg IP 30 min prior to test
  Number of marbles buried compared to vehicle: significantly reduced the number of marbles buried
mice; Example 4, paroxetine 5 mg/kg IP
  Number of marbles buried compared to vehicle: significantly reduced the number of marbles buried
